Molecules are shown by their SMILES.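 A five-concentration, 48-hour dose response in 96-well plates underlies each endpoint, interpolated linearly between surrounding concentrations. The concentration for 50% growth inhibition is given as GI50. Definition used: TGI = concentration required for complete inhibition of growth.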

What all share (test): NCI tumour cell line growth inhibition, 48 h
The test system of assay [1] is NCI-H23 lung.
Assay [2] concerns SF-268 CNS.
For assay [3], the system named is MALME-3M melanoma.
Assay [4] relates to OVCAR-3 ovarian.
For assay [5], the system named is NCI-H460 lung.
In assay [6] the test system is A549 NSCLC.
Assay [7] has as its system 786-0 renal.
Assay [8] relates to OVCAR-5 ovarian.
For assay [9], the system named is NCI-H226 lung.
In assay [10] the test system is RXF 393 renal.

Take `COC(=O)Nc1nc2ccc(Oc3ccc(NC(=O)Nc4ccccc4)cc3)cc2[nH]1`: the GI50 in assay [1] was 0.545 µM; in assay [2], 0.267 µM; in assay [3], 0.14 µM; in assay [4], 0.0713 µM; in assay [5] it was 0.129 µM; in assay [6], 0.533 µM. The GI50 in assay [7] is 0.18 µM; in assay [8] it was 1.06 µM; in assay [9], 0.18 µM; in assay [10], 0.069 µM. Besides, the TGI in [1] was over 12.3 µM; in assay [2] it was over 14.5 µM; in assay [3], over 11.4 µM; in [4] it was 0.205 µM; in assay [5], 2.71 µM; in [6] it was 5.32 µM. The TGI in [7] is 5.05 µM; in [8], over 14.4 µM; in assay [9], 5.21 µM; in [10], 0.533 µM.

`CC(=O)[CH-]C(=O)c1ccccc1.CC(=O)[CH-]C(=O)c1ccccc1.O=C([O-])c1ccc([O-])cc1.O=C([O-])c1ccc([O-])cc1.[Ti+4]`: the GI50 in [1] was 66.2 µM; in assay [2], 25 µM; in assay [3] it was 23.6 µM; in assay [4], 33.4 µM; in [5], 44.2 µM; in assay [6] it was 69.1 µM. Further, the GI50 was 54.4 µM in assay [7], 74.5 µM in assay [8], 37.3 µM in assay [9] and 15.3 µM in assay [10]. The TGI is over 100 µM in assay [1]; over 100 µM in assay [2]; 66.8 µM in assay [3]; over 100 µM in [4]; over 100 µM in [5]; over 100 µM in assay [6]. Also, the TGI in [7] is over 100 µM; in assay [8], over 100 µM; in assay [9], over 100 µM; in [10], 56.4 µM.

Consider `COC(=O)C1=NC(=S)NC(c2ccccc2)C1c1nc2ccccc2s1` (stereo unspecified), for which the TGI in [1], in assay [2], in assay [3], in assay [4], in [5] and in [6] was over 100 µM each time. For the same molecule, the TGI in assay [7], in assay [9] and in assay [10] was over 100 µM throughout.

`CCN(CC)CCCC(C)Nc1c(C)cnc2cc(Cl)c(C)cc12` (stereo unspecified): the GI50 is 11.5 µM in assay [1]; 15.3 µM in [2]; 14.9 µM in assay [3]; 10.1 µM in [4]; 14.1 µM in [5]; 15.1 µM in [6]. For the same molecule, the GI50 is 10.8 µM in assay [7], 5.56 µM in assay [8], 4.57 µM in assay [9] and 8.75 µM in [10]. In addition, the TGI in assay [1] was found to be 23.9 µM; in assay [2], 33.3 µM; in assay [3] it was 29.7 µM; in assay [4], 27.4 µM; in assay [5], 32.3 µM; in assay [6] it was 30 µM. Moreover, the TGI in assay [7] amounted to 23 µM; in assay [8] it was 18 µM; in assay [9] it was 15 µM; in assay [10] it was 26.6 µM.

As to `NC(=S)N/N=C/c1ccc(OC(=O)COc2ccc(Cl)cc2)cn1`, the GI50 in [1] was 3.67 µM; in [2] it was 2.28 µM; in assay [3], 12.2 µM; in assay [5], 3.91 µM; in [6] it was 34.5 µM; in assay [7] it was 3.64 µM. Also, the GI50 is 41.6 µM in assay [8], 13.4 µM in assay [9] and 5.48 µM in assay [10]. Besides, the TGI in assay [1] was over 100 µM; in assay [2], 21.8 µM; in [3], over 100 µM; in assay [5] it was 18.9 µM; in assay [6], over 100 µM; in assay [7], 9.98 µM. Further, the results for the TGI in assay [8], in assay [9] and in assay [10] were over 100 µM, 48.9 µM and over 100 µM, respectively.

Take `Cc1ccc2nc3c(C(=O)NCCN(C)C)cccc3nc2c1`: the TGI in assay [1] is 17.1 µM; in assay [3], 8.37 µM; in assay [4] it was 32.4 µM; in assay [6], over 100 µM; in assay [7], over 77.2 µM; in assay [8], 29.8 µM. The TGI in [9] was 10.4 µM; in assay [10] it was 15.5 µM.

Consider `COC(=O)c1cc(Br)c(Br)n1C`, for which the TGI in [1], in [2], in assay [3], in assay [4], in assay [6] and in [7] was over 100 µM in each case. Moreover, the TGI in assay [8], in assay [9] and in assay [10] was over 100 µM in each case.

For `Fc1cc(F)c(COc2cc(Cn3cnc4c(Cl)nc(Cl)nc43)ccc2C23CC4CC(CC(C4)C2)C3)cc1F`, the GI50 in [2] was 16.4 µM; in assay [3] it was 1.92 µM; in assay [4], 15.6 µM; in [5] it was 19.4 µM; in assay [6], 28 µM; in assay [7], 19.4 µM. The GI50 in assay [8] was 19.9 µM; in assay [9], 2.15 µM; in assay [10] it was 15.3 µM. Moreover, the TGI in assay [2] came to 33.1 µM; in [3], 4.75 µM; in assay [4] it was 30.2 µM; in assay [5] it was 37.5 µM; in [6], 76.7 µM; in assay [7], 34.9 µM. In addition, the results for the TGI in assay [8], in [9] and in assay [10] were 37.4 µM, 4.51 µM and 29.7 µM, respectively.

Consider `Cc1noc(C)c1CCCOC1COc2ccccc2OCCOCCOc2ccccc2OC1`, for which the TGI in [1], in assay [2], in assay [3], in [4], in assay [6] and in assay [7] was over 100 µM in each case. The TGI in assay [8], in assay [9] and in [10] was over 100 µM throughout.

The record behind these values is PubChem BioAssay (NCI).
